Assays:
[1] = Solution stability of Epoprostenol in presence of 50 mg/ml of arginine; type: physicochemical; details: 50 mg/ml arginine
Procedure: A solution of epoprostenol and 50 mg/ml of arginine was prepared and the stability of this solution at 5° C. was determined. The resulting data are presented in the Table 4: Stability of the same formulation was also conducted at pH 11.2; and the data are summarized in the Table 5 below: […]

[2] = Solution stability of reconstituted lyophile (epoprostenol 0.5 mg/ml, arginine 50 mg/ml, pH 13.0); type: physicochemical; details: 50 mg/ml arginine
Procedure: In the next set of experiments, the pH of the solution containing epoprostenol and arginine was adjusted to 13.0 with sodium hydroxide, and lyophilized. Upon reconstitution of the lyophile with 1 ml of Water for Injection, the reconstituted solution contains 50 mg/ml arginine and 0.5 mg/ml epoprostenol. The pH of the solution is 13.0. The stability data are presented in Table 6 for 5° C. and Table 7 for 29° C. below: […]

[3] = Dilution stability of reconstituted lyophile diluted to 10 μg/ml in IV fluids; type: physicochemical
Procedure: Dilution studies were also conducted to determine whether the formulations of the present invention are suitable for IV infusion at room temperature. The stability studies were conducted at 25° C. and 30° C. to mimic the temperatures during the infusion over a 24 hour period in various large volume parenteral solutions.
To this end, the stability of the epoprostenol lyophile reconstituted and diluted to 10 μg/ml in normal saline was stability monitored for 48 hours at 25° C. and 30° C. Dilution stability of all three primary formulation batches was conducted in normal saline at 25° C. and 30° C. In addition to these studies, dilution stability studies on one lot of primary formulation batch were conducted at 25° C. and 30° C. in 5% Dextrose (D5W), WFI (in-house) and lactated Ringer's solution.
For the dilution studies, each vial was reconstituted with 5 ml of the diluent. The clear solution was transferred into a 50 ml volumetric flask. The vial was rinsed with 5 ml of diluent three times and the rinses were transferred to the flask. The contents of the flask were further diluted with the diluent and made up to the mark with the diluent. The pH of the diluted solution was measured and recorded. The contents of the flask were held at the temperatures noted and analyzed at predetermined time intervals.

[4] = cited from earlier work

## CCCCC[C@H](O)/C=C/C1[C@H]2C/C(=C/CCCC(=O)[O-])OC2C[C@H]1O.[Na+] (stereo partly drawn) [Epoprostenol, (5Z,9(alpha),11(alpha),13E,15S)-6,9-epoxy-11,15-dihydroxyprosta-5,13-dien-1-oic acid]
[1]; pH 11.2, 5 ± 1° C., 4.0 HRS
  % Assay of Epoprostenol by Area: 99.5%
  Area % of 6-keto et al. impurities: 0.28%
[1]; pH 11.2, 5 ± 1° C., 7.0 HRS
  % Assay of Epoprostenol by Area: 99.0%
  Area % of 6-keto et al. impurities: 0.39%
[1]; pH 11.2, 5 ± 1° C., 10.0 HRS
  % Assay of Epoprostenol by Area: 98.6%
  Area % of 6-keto et al. impurities: 0.53%
[1]; pH 11.2, 5 ± 1° C., 11.5 HRS
  % Assay of Epoprostenol by Area: 98.3%
  Area % of 6-keto et al. impurities: 0.57%
[1]; pH 11.2, 5 ± 1° C., 17.5 HRS
  % Assay of Epoprostenol by Area: 97.3%
  Area % of 6-keto et al. impurities: 0.80%
[1]; pH 11.2, 5 ± 1° C., Initial
  % Assay of Epoprostenol by Area: 100.0%
[1]; pH 11.9, 5° C., at 53 hours
  loss in potency: 1.4%
[1]; pH 11.9, 5 ± 1° C., 2 HRS
  % Assay of Epoprostenol by Area: 99.9%
  Area % of 6-keto et al. impurities: 0.19%
[1]; pH 11.9, 5 ± 1° C., 4 HRS
  % Assay of Epoprostenol by Area: 99.8%
  Area % of 6-keto et al. impurities: 0.19%
[1]; pH 11.9, 5 ± 1° C., 6 HRS
  % Assay of Epoprostenol by Area: 99.8%
  Area % of 6-keto et al. impurities: 0.21%
[1]; pH 11.9, 5 ± 1° C., 8 HRS
  % Assay of Epoprostenol by Area: 99.7%
  Area % of 6-keto et al. impurities: 0.22%
[1]; pH 11.9, 5 ± 1° C., 10 HRS
  % Assay of Epoprostenol by Area: 99.6%
  Area % of 6-keto et al. impurities: 0.23%
[1]; pH 11.9, 5 ± 1° C., 12.5 HRS
  % Assay of Epoprostenol by Area: 99.6%
  Area % of 6-keto et al. impurities: 0.25%
[1]; pH 11.9, 5 ± 1° C., 14.5 HRS
  % Assay of Epoprostenol by Area: 99.6%
  Area % of 6-keto et al. impurities: 0.26%
[1]; pH 11.9, 5 ± 1° C., 39 HRS
  % Assay of Epoprostenol by Area: 99.5%
  Area % of 6-keto et al. impurities: 0.63%
[1]; pH 11.9, 5 ± 1° C., 53 HRS
  % Assay of Epoprostenol by Area: 98.6%
  Area % of 6-keto et al. impurities: 1.15%
[1]; pH 11.9, 5 ± 1° C., 77 HRS
  % Assay of Epoprostenol by Area: 92.7%
  Area % of 6-keto et al. impurities: 2.05%
[1]; pH 11.9, 5 ± 1° C., 100 HRS
  % Assay of Epoprostenol by Area: 92.5%
  Area % of 6-keto et al. impurities: 2.10%
[1]; pH 11.9, 5 ± 1° C., 124 HRS
  % Assay of Epoprostenol by Area: 92.5%
  Area % of 6-keto et al. impurities: 2.25%
[1]; pH 11.9, 5 ± 1° C., Initial
  % Assay of Epoprostenol by Area: 100.0%
  Area % of 6-keto et al. impurities: 0.15%
[2]; pH 13.0, 5° C., over 480 hours
  loss of potency: 3.4%
  loss of potency on average: 0.007 %/hour
[2]; pH 13.0, 5 ± 1° C., 14.5 Hours
  % Assay of Epoprostenol by Area: 99.8%
  Area % of 6-keto PGF et al. impurities: 0.20%
[2]; pH 13.0, 5 ± 1° C., 53 Hours
  % Assay of Epoprostenol by Area: 98.8%
[2]; pH 13.0, 5 ± 1° C., 124 Hours
  % Assay of Epoprostenol by Area: 98.0%
  Area % of 6-keto PGF et al. impurities: 0.40%
[2]; pH 13.0, 5 ± 1° C., 148 Hours
  % Assay of Epoprostenol by Area: 97.6%
  Area % of 6-keto PGF et al. impurities: 0.45%
[2]; pH 13.0, 5 ± 1° C., 192 Hours
  % Assay of Epoprostenol by Area: 97.3%
  Area % of 6-keto PGF et al. impurities: 0.47%
[2]; pH 13.0, 5 ± 1° C., 240 Hours
  % Assay of Epoprostenol by Area: 96.9%
  Area % of 6-keto PGF et al. impurities: 0.61%
[2]; pH 13.0, 5 ± 1° C., 480 Hours
  % Assay of Epoprostenol by Area: 96.6%
  Area % of 6-keto PGF et al. impurities: 0.70%
[2]; pH 13.0, 5 ± 1° C., Initial
  % Assay of Epoprostenol by Area: 100.0%
  Area % of 6-keto PGF et al. impurities: 0.16%
[2]; pH 13.0, 29° C., in 12 hours
  degradation: 1.5%
[2]; pH 13.0, 29 ± 1° C., 1 HRS
  % Assay of Epoprostenol by Area: 100.0%
  Area % of 6-keto et al. impurities: 0.087%
[2]; pH 13.0, 29 ± 1° C., 5 HRS
  % Assay of Epoprostenol by Area: 99.8%
  Area % of 6-keto et al. impurities: 0.18%
[2]; pH 13.0, 29 ± 1° C., 7 HRS
  % Assay of Epoprostenol by Area: 99.3%
  Area % of 6-keto et al. impurities: 0.21%
[2]; pH 13.0, 29 ± 1° C., 8 HRS
  % Assay of Epoprostenol by Area: 99.2%
  Area % of 6-keto et al. impurities: 0.25%
[2]; pH 13.0, 29 ± 1° C., 9 HRS
  % Assay of Epoprostenol by Area: 99.1%
  Area % of 6-keto et al. impurities: 0.29%
[2]; pH 13.0, 29 ± 1° C., 10 HRS
  % Assay of Epoprostenol by Area: 98.8%
  Area % of 6-keto et al. impurities: 0.28%
[2]; pH 13.0, 29 ± 1° C., 11 HRS
  % Assay of Epoprostenol by Area: 98.6%
  Area % of 6-keto et al. impurities: 0.29%
[2]; pH 13.0, 29 ± 1° C., 12 HRS
  % Assay of Epoprostenol by Area: 98.5%
  Area % of 6-keto et al. impurities: 0.30%
[2]; pH 13.0, 29 ± 1° C., 13 HRS
  % Assay of Epoprostenol by Area: 98.1%
  Area % of 6-keto et al. impurities: 0.38%
[2]; pH 13.0, 29 ± 1° C., 14 HRS
  % Assay of Epoprostenol by Area: 98.0%
  Area % of 6-keto et al. impurities: 0.37%
[2]; pH 13.0, 29 ± 1° C., 15 HRS
  % Assay of Epoprostenol by Area: 97.8%
  Area % of 6-keto et al. impurities: 0.39%
[2]; pH 13.0, 29 ± 1° C., 24 HRS
  % Assay of Epoprostenol by Area: 97.5%
  Area % of 6-keto et al. impurities: 0.39%
[2]; pH 13.0, 29 ± 1° C., 36 HRS
  % Assay of Epoprostenol by Area: 97.5%
  Area % of 6-keto et al. impurities: 0.45%
[2]; pH 13.0, 29 ± 1° C., Initial
  % Assay of Epoprostenol by Area: 100.0%
  Area % of 6-keto et al. impurities: 0.072%
[3]; D5W, after 8 hours
  drug degraded: approximately 84%
[3]; lactated Ringer's solution, 25° C. and 30° C.
  stability compared with normal saline: comparable to that of normal saline
[3]; water, 30° C., for more than 18 hours
  potency maintained: greater than 90%

## N=C(N)NCCC[C@H](N)C(=O)O [arginine]
[4]
  basic pKa: 10.8

Source: US8598227B2, “Epoprostenol formulation and method of making thereof” (Actelion Pharmaceuticals Ltd., priority 2006, dated 2013)
